Activity calls are given as the source filed them. No cut-off for these calls is given here.
How the values were obtained:
[1] = test system: HeLa; experiment: Induction of mitophagy in human HeLa cells harbouring mCherry-GFP tag assessed as reduction in GFP fluorescence at 40 uM incubated for 24 hrs by confocal microscopy analysis; assay type: functional, cell-based
[2] = test system: HeLa; experiment: Induction of mitophagy in human HeLa cells assessed as colocalization of mitochondria and lysosomes at 40 uM by lysotracker red staining based confocal microscopy analysis; assay type: functional, cell-based
[3] = test system: HeLa; experiment: Induction of mitophagy in human HeLa cells assessed as colocalization of mitochondria and lysosomes at 40 uM by mitoGFP staining based confocal microscopy analysis; assay type: functional, cell-based
[4] = test system: HeLa; experiment: Induction of mitophagy in human HeLa cells harbouring mCherry-GFP tag assessed as visible mCherry fluorescence at 40 uM incubated for 24 hrs by confocal microscopy analysis; assay type: functional, cell-based
[5] = test system: A-375; experiment: Anticancer activity against human A-375 cells assessed as inhibition of cell growth by MTT assay; assay type: functional, cell-based
[6] = Drug localization in mitochondria of human HCC827 cells assessed as increase in green fluorescence by measuring pearson correlation coefficient at 10 uM incubated for 10 mins by mito-tracker green dye based confocal scanning microscopy analysis; assay type: ADME; conditions: hcc827, 10 min
[7] = Drug metabolism in human HCC827 cells mitochondria assessed as 2-(2-(4-hydroxystyryl)-4H-chromen-4-ylidene)malononitrile hydrolysis at 10 uM incubated for 5 mins by fluorescence emission spectroscopy analysis; assay type: ADME; conditions: hcc827, 5 min
[8] = Drug uptake in human HCC827 cells mitochondria assessed as increase in fluorescence intensity at 10 uM by fluorescence emission spectroscopy analysis; assay type: ADME; conditions: hcc827, 10 µM
[9] = biological target: T1, Heat shock protein 75 kDa, mitochondrial (Homo sapiens) (UniProt Q12931); experiment: Inhibition of human TRAP1 assessed as fold increase in ATPase activity at 20 uM
T1 sequence (whole entry): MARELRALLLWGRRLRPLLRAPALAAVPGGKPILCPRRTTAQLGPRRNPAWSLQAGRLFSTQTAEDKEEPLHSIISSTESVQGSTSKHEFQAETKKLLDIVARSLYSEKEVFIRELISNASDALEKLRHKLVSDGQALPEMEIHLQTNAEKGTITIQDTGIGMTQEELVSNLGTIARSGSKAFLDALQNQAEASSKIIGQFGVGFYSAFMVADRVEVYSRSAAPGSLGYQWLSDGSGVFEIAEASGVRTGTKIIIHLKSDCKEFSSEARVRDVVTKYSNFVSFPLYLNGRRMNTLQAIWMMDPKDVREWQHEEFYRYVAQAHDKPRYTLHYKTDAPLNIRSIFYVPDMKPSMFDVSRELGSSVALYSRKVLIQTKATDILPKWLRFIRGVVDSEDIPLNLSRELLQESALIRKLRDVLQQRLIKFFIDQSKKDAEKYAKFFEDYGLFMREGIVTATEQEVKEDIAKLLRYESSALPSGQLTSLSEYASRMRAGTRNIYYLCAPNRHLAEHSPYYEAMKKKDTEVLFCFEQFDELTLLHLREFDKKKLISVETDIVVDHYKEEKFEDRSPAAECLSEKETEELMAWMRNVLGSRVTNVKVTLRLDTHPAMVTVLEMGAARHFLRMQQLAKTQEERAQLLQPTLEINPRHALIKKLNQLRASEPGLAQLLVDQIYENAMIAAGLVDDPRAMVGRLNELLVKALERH

| Structure (SMILES) | IC50 [5] [µM] | Drug uptake [6] | Drug metabolism [7] | Drug uptake [8] | also measured |
| --- | --- | --- | --- | --- | --- |
| N#CC(C#N)=NNc1cccc(Cl)c1 |  |  |  |  | Activity [1]: Active; Activity [2]: Active; Activity [3]: Active; Activity [4]: Active |
| O=C(O)CCCCC(CCSCc1ccccc1)SCc1ccccc1 (stereo not drawn) [CPI 613] | > 100 |  |  |  |  |
| O=C(CCCCC(CCSCc1ccccc1)SCc1ccccc1)OCCCCC[P+](c1ccccc1)(c1ccccc1)c1ccccc1 (stereo not drawn) | 4.15 |  |  |  |  |
| N#CC(C#N)=C1C=C(/C=C/c2ccc(OC(=O)OCCCCCCCCCC[P+](c3ccc(C(F)(F)F)cc3)(c3ccc(C(F)(F)F)cc3)c3ccc(C(F)(F)F)cc3)cc2)Oc2ccccc21.[Br-] |  | 0.46 | metabolite_detected | Not_active |  |
| Cc1ccc([P+](CCCCCCCCCCOC(=O)Oc2ccc(/C=C/C3=CC(=C(C#N)C#N)c4ccccc4O3)cc2)(c2ccc(C)cc2)c2ccc(C)cc2)cc1.[Br-] |  | 0.84 | metabolite_detected | Active |  |
| CC1=C(C)C(=O)C(CCCCCCCCCC[P+](c2ccccc2)(c2ccccc2)c2ccccc2)=CC1=O |  |  |  |  | fold change (FC) [9]: 1.4 |

— ChEMBL document CHEMBL6182916, “Unexpected Discovery of a Novel Triphenylphosphonium Alkylalcohol That Triggers Cancer Cell Death via Mitophagy and Ferroptosis” (J Med Chem, 2025)
